Fold induction and IC50 data for nine compounds are collected here from patent US11530229B2, “Cyano cyclobutyl compounds for CBL-B inhibition and uses thereof” (Nurix Therapeutics, Inc., priority 2019, dated 2022).

For experiment [1], the system named is primary human total T-cells. In words: T-cell activation, IL-2 secretion, Biological Example 2. The settings on record: 48 hours, fold change over baseline; for fold induction at 0.3 µM: 0.3 μM inhibitor; for fold induction at 1 µM: 1 μM inhibitor; for fold induction at 3 µM: 3 μM inhibitor. The class given is cell-based.
For experiment [2], the system named is primary human total T-cells. In words: T-cell activation, CD25 surface staining, Biological Example 2. The class given is cell-based. The following applies: 48 hours, fold change over baseline; for fold induction at 0.3 µM: 0.3 μM inhibitor; for fold induction at 1 µM: 1 μM inhibitor; for fold induction at 3 µM: 3 μM inhibitor.
The target in the next experiment is Cbl-b (Homo sapiens (Human), UniProt Q13191). In words: Cbl-b displacement assay (Cbl-b inhibition assay), Biological Example 1. The class given is binding. The procedure, abridged: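 Avitag-biotinylated human Cbl-b (residues 36–427) at 0.5 nM ("High") or 0.125 nM ("Low") pre-incubated 1 h with compound (1% DMSO) in HEPES pH 7.5/NaCl/Triton/BSA/TCEP, RT. Then 1 h with 150 nM BODIPY FL inhibitor probe (~EC40) plus 2 nM streptavidin-Tb. TR-FRET read at 520/620 nm for probe displacement.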
Cbl-b, sequence (Q13191 36-427): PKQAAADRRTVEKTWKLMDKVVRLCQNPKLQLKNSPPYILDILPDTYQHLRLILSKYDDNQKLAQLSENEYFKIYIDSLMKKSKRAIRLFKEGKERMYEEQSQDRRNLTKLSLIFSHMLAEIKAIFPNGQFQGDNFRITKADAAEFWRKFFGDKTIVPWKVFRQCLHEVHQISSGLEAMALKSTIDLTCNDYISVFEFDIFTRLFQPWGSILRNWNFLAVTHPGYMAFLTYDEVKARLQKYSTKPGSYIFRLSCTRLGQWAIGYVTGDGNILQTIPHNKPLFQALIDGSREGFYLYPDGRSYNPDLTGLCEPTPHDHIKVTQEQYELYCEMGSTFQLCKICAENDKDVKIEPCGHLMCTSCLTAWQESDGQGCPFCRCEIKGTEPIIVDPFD

Setting [3] is: anti-CD3 and anti-CD28 co-stimulation.
[4] abbreviates: anti-CD3 and anti-CD28 co-stimulation, read-out: IL-2 secretion CD3/CD28 1 μM.
The mark [5] stands for this setting: anti-CD3 stimulation alone, read-out: IL-2 secretion CD3 1 μM.
Where [6] appears, read: anti-CD3 and anti-CD28 co-stimulation, read-out: CD25 staining CD3/CD28 1 μM.
The mark [7] stands for this setting: anti-CD3 stimulation alone, read-out: CD25 staining CD3 1 μM.
Where [8] appears, read: 0.125 nM Cbl-b final concentration (Low), read-out: Cbl-b activity IC50 (Low).
[9] abbreviates: read-out: IC50 values in the Cbl-b inhibition assay of Biological Example 1.

Like-named read-outs stand apart in the source and are kept apart here.

For orientation: IC50 means the concentration needed to halve the response being measured. With `Cn1cnnc1C[C@]1(c2cccc(N3Cc4c(cc(CN5CCOCC(CO)C5)cc4C(F)(F)F)C3=O)c2)C[C@H](C#N)C1` (stereo partly drawn) [Compound 44, (1r,3r)-3-(3-(6-((6-(hydroxymethyl)-1,4-oxazepan-4-yl)methyl)-1-oxo-4-(trifluoromethyl)isoindolin-2-yl)phenyl)-3-((4-methyl-4H-1,2,4-triazol-3-yl)methyl)cyclobutane-1-carbonitrile], the fold induction at 0.3 µM in experiment [1] (setting [3]) was no more than 15; in experiment [2] (setting [3]) it was no more than 1.24. The fold induction at 1 µM is no more than 15 in experiment [1] (setting [4]), less than 0.4 in experiment [1] (setting [5]), no more than 1.24 in experiment [2] (setting [6]) and no more than 1 in experiment [2] (setting [7]). The fold induction at 3 µM is less than 0.4 in experiment [1] (anti-CD3 stimulation alone) and 1 to 1.15 in experiment [2] (anti-CD3 stimulation alone). Moreover, the IC50 at Cbl-b (setting [8]) and at Cbl-b (setting [9]) was 1 to 2 nM each time.
Regarding `CN(Cc1cc2c(c(C(F)(F)F)c1)CN(c1cccc([C@]3(Cc4nncn4C)C[C@@H](C#N)C3)c1)C2=O)C1CCC(F)(F)C1` (stereo partly drawn) [Compound 32, (1r,3r)-3-(3-(6-(((3,3-difluorocyclopentyl)(methyl)amino)methyl)-1-oxo-4-(trifluoromethyl)isoindolin-2-yl)phenyl)-3-((4-methyl-4H-1,2,4-triazol-3-yl)methyl)cyclobutane-1-carbonitrile], the fold induction at 0.3 µM was greater than 20 in experiment [1] (setting [3]) and greater than 1.39 in experiment [2] (setting [3]). Moreover, the fold induction at 1 µM in experiment [1] (setting [4]) was greater than 20; in experiment [1] (setting [5]) it was greater than 0.85; in experiment [2] (setting [6]), greater than 1.39; in experiment [2] (setting [7]) it was greater than 1.15. Moreover, the fold induction at 3 µM in experiment [1] (anti-CD3 stimulation alone) was greater than 0.85; in experiment [2] (anti-CD3 stimulation alone) it was greater than 1.15. For the same compound, the IC50 on Cbl-b (setting [8]) lay within 2 to 5 nM.
On to `CC1CN(Cc2cc3c(c(C(F)(F)F)c2)CN(c2cccc([C@]4(Cc5nncn5C)C[C@@H](C#N)C4)c2)C3=O)CCCO1` (stereo partly drawn) [Compound 33, (1r,3r)-3-(3-(6-((2-methyl-1,4-oxazepan-4-yl)methyl)-1-oxo-4-(trifluoromethyl)isoindolin-2-yl)phenyl)-3-((4-methyl-4H-1,2,4-triazol-3-yl)methyl)cyclobutane-1-carbonitrile], for which the fold induction at 0.3 µM in experiment [1] (setting [3]) is no more than 15; in experiment [2] (setting [3]), no more than 1.24. Besides, the fold induction at 1 µM in experiment [1] (setting [4]) was no more than 15; in experiment [1] (setting [5]) it was 0.4 to 0.85; in experiment [2] (setting [6]) it was no more than 1.24; in experiment [2] (setting [7]) it was no more than 1. The fold induction at 3 µM is 0.4 to 0.85 in experiment [1] (anti-CD3 stimulation alone) and no more than 1 in experiment [2] (anti-CD3 stimulation alone). Besides, on Cbl-b (setting [8]), the half-maximal inhibitory concentration (IC50) is 2 to 5 nM.
As to `C[C@@H]1CN(Cc2cc3c(c(C4CC4)n2)CN(c2cccc([C@]4(Cc5nncn5C)C[C@@H](C#N)C4)c2)C3=O)CCC1(F)F` [Compound 42, (1R,3r)-3-(3-(4-cyclopropyl-6-(((R)-4,4-difluoro-3-methylpiperidin-1-yl)methyl)-1-oxo-1,3-dihydro-2H-pyrrolo[3,4-c]pyridin-2-yl)phenyl)-3-((4-methyl-4H-1,2,4-triazol-3-yl)methyl)cyclobutane-1-carbonitrile], the figures for the fold induction at 0.3 µM in experiment [1] (setting [3]) and in experiment [2] (setting [3]) were 15 to 20 and no more than 1.24, respectively. Further, the fold induction at 1 µM in experiment [1] (setting [4]) was greater than 20; in experiment [1] (setting [5]), greater than 0.85; in experiment [2] (setting [6]) it was no more than 1.24; in experiment [2] (setting [7]), 1 to 1.15. Besides, the fold induction at 3 µM in experiment [1] (anti-CD3 stimulation alone) is greater than 0.85; in experiment [2] (anti-CD3 stimulation alone), 1 to 1.15. Moreover, the IC50 on Cbl-b (setting [8]) fell in the range of 2 to 5 nM.
On to `C[C@@H]1C[C@H](C)CN(Cc2cc3c(c(C(F)(F)F)c2)CN(c2cccc([C@]4(Cc5nncn5C)C[C@@H](C#N)C4)c2)C3=O)C1` [Compound 18, (1R,3r)-3-(3-(6-(((3S,5R)-3,5-dimethylpiperidin-1-yl)methyl)-1-oxo-4-(trifluoromethyl)isoindolin-2-yl)phenyl)-3-((4-methyl-4H-1,2,4-triazol-3-yl)methyl)cyclobutane-1-carbonitrile], for which the fold induction at 0.3 µM in experiment [1] (setting [3]) is greater than 20; in experiment [2] (setting [3]), 1.24 to 1.39. Moreover, the fold induction at 1 µM is greater than 20 in experiment [1] (setting [4]), greater than 0.85 in experiment [1] (setting [5]), 1.24 to 1.39 in experiment [2] (setting [6]) and 1 to 1.15 in experiment [2] (setting [7]). Also, the figures for the fold induction at 3 µM in experiment [1] (anti-CD3 stimulation alone) and in experiment [2] (anti-CD3 stimulation alone) were greater than 0.85 and no more than 1, respectively. Besides, the IC50 on Cbl-b (setting [8]) is less than 1 nM.
As to `Cc1cc(C(=O)Nc2cccc([C@]3(Cc4nncn4C)C[C@](C)(C#N)C3)c2)nc(C2CC2)n1` [Compound 9], the figures for the fold induction at 0.3 µM in experiment [1] (setting [3]) and in experiment [2] (setting [3]) were no more than 15 and no more than 1.24, respectively. Besides, the fold induction at 1 µM is no more than 15 in experiment [1] (setting [4]), less than 0.4 in experiment [1] (setting [5]), 1.24 to 1.39 in experiment [2] (setting [6]) and no more than 1 in experiment [2] (setting [7]). For the same compound, the fold induction at 3 µM in experiment [1] (anti-CD3 stimulation alone) was less than 0.4; in experiment [2] (anti-CD3 stimulation alone), 1 to 1.15. In addition, the IC50 on Cbl-b (setting [8]) and at Cbl-b (setting [9]) was 5 to 20 nM throughout.
In the case of `C[C@@H]1CN(Cc2cc3c(c(C(F)(F)F)c2)CN(c2cccc([C@]4(Cc5nncn5C)C[C@@H](C#N)C4)c2)C3=O)CCO1` [Compound 6, (1r,3r)-3-((4-methyl-4H-1,2,4-triazol-3-yl)methyl)-3-(3-(6-(((R)-2-methylmorpholino)methyl)-1-oxo-4-(trifluoromethyl)isoindolin-2-yl)phenyl)cyclobutane-1-carbonitrile], the fold induction at 0.3 µM in experiment [1] (setting [3]) is no more than 15; in experiment [2] (setting [3]) it was no more than 1.24. Besides, the fold induction at 1 µM in experiment [1] (setting [4]) was no more than 15; in experiment [1] (setting [5]), 0.4 to 0.85; in experiment [2] (setting [6]), no more than 1.24; in experiment [2] (setting [7]), 1 to 1.15. In addition, the fold induction at 3 µM in experiment [1] (anti-CD3 stimulation alone) is 0.4 to 0.85; in experiment [2] (anti-CD3 stimulation alone), no more than 1. For the same compound, the IC50 at Cbl-b (setting [8]) and at Cbl-b (setting [9]) was 2 to 5 nM in each case.
As to `CC1CCCN(Cc2cc3c(c(C(F)(F)F)c2)CN(c2cccc([C@]4(Cc5nncn5C)C[C@@H](C#N)C4)c2)C3=O)CC1` (stereo partly drawn) [Compound 13, (1r,3r)-3-((4-methyl-4H-1,2,4-triazol-3-yl)methyl)-3-(3-(6-((4-methylazepan-1-yl)methyl)-1-oxo-4-(trifluoromethyl)isoindolin-2-yl)phenyl)cyclobutane-1-carbonitrile], the fold induction at 0.3 µM in experiment [1] (setting [3]) lay in the range of 15 to 20; in experiment [2] (setting [3]), 1.24 to 1.39. Moreover, the fold induction at 1 µM in experiment [1] (setting [4]) was 15 to 20; in experiment [1] (setting [5]), 0.4 to 0.85; in experiment [2] (setting [6]), 1.24 to 1.39; in experiment [2] (setting [7]) it was greater than 1.15. The fold induction at 3 µM in experiment [1] (anti-CD3 stimulation alone) is 0.4 to 0.85; in experiment [2] (anti-CD3 stimulation alone), 1 to 1.15. The IC50 on Cbl-b (setting [8]) is 2 to 5 nM.
Turning to `Cn1cnnc1C[C@]1(c2cccc(N3Cc4c(cc(CN5CCOCC6(CC6)C5)cc4C(F)(F)F)C3=O)c2)C[C@H](C#N)C1` [Compound 30, (1r,3r)-3-(3-(6-((5-oxa-8-azaspiro[2.6]nonan-8-yl)methyl)-1-oxo-4-(trifluoromethyl)isoindolin-2-yl)phenyl)-3-((4-methyl-4H-1,2,4-triazol-3-yl)methyl)cyclobutane-1-carbonitrile], the fold induction at 0.3 µM in experiment [1] (setting [3]) is no more than 15; in experiment [2] (setting [3]) it was no more than 1.24. Also, the fold induction at 1 µM was no more than 15 in experiment [1] (setting [4]), less than 0.4 in experiment [1] (setting [5]), no more than 1.24 in experiment [2] (setting [6]) and no more than 1 in experiment [2] (setting [7]). The results for the fold induction at 3 µM in experiment [1] (anti-CD3 stimulation alone) and in experiment [2] (anti-CD3 stimulation alone) were less than 0.4 and 1 to 1.15, respectively. Besides, on Cbl-b (setting [8]), the IC50 was 2 to 5 nM.
